Entries after “also recorded” stand apart in the source; their conditions may differ.
Key:
trypsin = target: T1, trypsin (Bos taurus, UniProt P00760); experiment: Trypsin inhibition assay; assay type: biochemical
T1 construct: gene PRSS1
T1 sequence (P00760 24-246): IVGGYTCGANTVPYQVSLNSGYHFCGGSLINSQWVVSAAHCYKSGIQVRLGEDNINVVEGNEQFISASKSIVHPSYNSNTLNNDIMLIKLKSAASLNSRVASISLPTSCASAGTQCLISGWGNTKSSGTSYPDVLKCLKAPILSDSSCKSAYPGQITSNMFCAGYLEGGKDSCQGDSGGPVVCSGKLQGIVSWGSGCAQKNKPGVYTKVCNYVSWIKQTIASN
Experimental: (§1) The inhibitory of activity of compounds described herein was tested against Kgp, RgpB, RgpA, and trypsin.

[1] = system: SH-SY5Y neuroblastoma cells; experiment: Rescue of neuroblastoma cells from P. gingivalis toxicity; assay type: cell-based; conditions: 4 μg/mL, P. gingivalis ATCC BAA-308, MOI 1:1000, 48 hours
Experimental: SH-SY5Y neuroblastoma cells were cultured based on established methods [Saberi S., et al. Cell Mol Neurobiol 2013. 33: 5 747-751]. The strain P. gingivalis ATCC BAA-308 was streaked onto a brain heart infusion agar (BHA), and the plate was incubated for 72 h at 37° C. in an anaerobic workstation with an atmosphere of 80% N2, 10% CO2, and 10% H2. The plates were removed from the anaerobic work station for testing and processed under ambient atmosphere. The bacteria were harvested and suspended in complete medium-Pen/Strep (without Pen/Strep). The turbidity of the suspension was adjusted to 0.5, as measured using a MicroScan® Turbidity Meter (Siemens), which is equivalent to ˜6×10^8 cfu/mL (for MOI 1:1000) and incubated with the cells for 48 hours. 4 μg/mL of Compound 13 was added to the media at the time of introduction of the bacteria. Results were recorded using a digital microscope camera (FIG. 5). […] Other compounds of the invention are tested as described for Compound 13.

[2] = system: gingipain-containing P. gingivalis supernatant; experiment: Degradation of human collagen by P. gingivalis supernatant (SDS-PAGE); assay type: biochemical, Porphyromonas gingivalis; conditions: 50 μM inhibitor, 1h, pH 7.5
Experimental: P. gingivalis was grown to exponential phase (OD 600 nm=0.6) in a Coy's anaerobic chamber under 5% hydrogen, 10% carbon dioxide, and […]. The bacteria were centrifuged at 5000×g for 10 min at 4° C., and then the supernatant was collected. The supernatant was concentrated by centrifugation at 5000×g for 60 min at 4° C. min using Corning Spin-X UF-20 concentrator tubes and then at 17,000×g for 30 min using Corning Spin-X UF500 concentrator tubes. 10 μg of Collagen type I was incubated with 0.6 μg of P. gingivalis culture supernatant for 1h in the absence or presence of 50 μM Rgp inhibitor (Compound 13, Table 1), 50 μM Kgp inhibitor ((S)—N-(6-guanidino-2-oxo-1-(2,3,5,6-tetrafluorophenoxy)hexan-3-yl)cyclopentanecarboxamide; described in U.S. Pat. Appl. Pub. No. 2016/0096830), or both. Reaction mixtures contained 5 mM cysteine, 20 mM sodium phosphate buffer, pH 7.5. After incubation, the reaction was terminated by the addition of protease inhibitor cocktail (Sigma). The samples were then analyzed by SDS-polyacrylamide gel electrophoresis. Following separation, the gels were stained with Biosafe Coomassie (Bio-Rad).

Kgp = Kgp (Porphyromonas gingivalis, UniProt B2RLK2); experiment: Kgp inhibition assay; assay type: biochemical
Experimental: as §1

RgpA = RgpA (Porphyromonas gingivalis, UniProt B2RM93); experiment: RgpA inhibition assay; assay type: biochemical
Experimental: as §1

RgpB = target: T2, RgpB (Porphyromonas gingivalis, UniProt P95493); experiment: RgpB fluorogenic inhibition assay; assay type: biochemical
T2 construct: 0.02 nM RgpB, isolated from culture of Porphyromonas gingivalis; made in house; host or cells: Porphyromonas gingivalis culture (native enzyme purified from the bacterium, not recombinant)
Experimental: The capacities of compounds of the present invention to inhibit the activity of RgpB were measured in a fluorogenic assay similar to those described in Barret Biochemical Journal. 1980, 187(3), 909. The specific assay conditions were as follows. Buffer: pH=7.5, 100 mM Tris-HCl, 75 mM NaCl, 2.5 mM CaCl2, 10 mM cysteine, 1% DMSO after all additions. Protein: 0.02 nM RgpB, isolated from culture of Porphyromonas gingivalis, as described in Pike et al. J Biol. Chem. 1994, 269(1), 406, and Potempa and Nguyen. Current Protocols in Protein Scienc. 2007, 21.20.1-21.20.27. Fluorogenic substrate: 10 uM Boc-Phe-Ser-Arg-MCA. Time=90 minutes. Temperature=37° C. Each compound: 10 concentrations, starting at either 100 uM or 100 nM, with lower concentrations generated by serial 3-fold dilutions. By testing a range of concentrations for each compound, the concentration required to inhibit the activity of RgpB by 50% (the “IC50”) was determined. Under the described assay conditions, signal-to-noise was excellent, and Z factor was greater than 0.7.
as §1

[3] = Plasma pharmacokinetics after subcutaneous delivery; assay type: in vivo; conditions: 10 mg/kg; for AUC(0-t): male, CD1, mouse, plasma, sc, mice
Experimental: Compound 13 was dissolved at a concentration of 1 mg/mL in water containing carboxymethylcellulose (2% w/w) or Pluronic F127 (25% w/w). Solutions were kept on ice, and 10 mg/kg of each solution was administered to 3 male CD1 mice. Plasma was collected at 7 time points. Concentrations in plasma were determined by HPLC with tandem mass (MS/MS) detection.
Plasma samples were precipitated with a mixture containing 80% acetonitrile. Samples were further diluted with water containing 0.1% formic acid. Chromatographic separation was performed on a reversed phase column (2.1×50 mm, particle size: […], Xbridge C8, Waters, USA). Components were separated using a linear gradient of acetonitrile containing 0.1% formic acid in ultrapurified H2O containing 0.1% formic acid (flow rate 0.2 mL/min).
MS analyses were performed using an API 5500 QTRAP system having an API 5500 QTRAP detector and a Turbo Ion Spray interface (both from Applied Biosystems, USA). The acquisitions were performed in positive ionization mode, with optimized settings for the analytes. The instrument was operated in multiple-reaction-monitoring (MRM) mode, the following transition was used to quantify compound 13; 433.4->112.1. Data were calibrated and quantified using the Analyst™ data system (Applied Biosystems) using the response of the analyte versus the concentration.

P gingivalis W83 = experiment: P. gingivalis infection of brain tissue in vivo (qPCR); design: species or system BalbC mice; conditions: BID subcutaneously in 25% Pluronic F127, day 35-70
Text: BalbC mice were given a tooth ligature and infected by oral lavage with P gingivalis W83 (1×10^9 CFU in 2% carboxymethyl cellulose) or vehicle for 6 weeks. Compound 13 was delivered BID subcutaneously in 25% Pluronic F127 on day 35-70. On day 70, mice were sacrificed and perfused with PBS prior to dissection. DNA was isolated from one quarter of the brain using a DNEasy Blood & Tissue Kit (Qiagen). Forward and reverse primers for RgpB were used for qPCR to quantify P. gingivalis DNA in the brain tissue. The forward primer sequence was 5′-[…]-3′ (SEQ ID NO: 1). The reverse primer sequence was 5′-[…]-3′ (SEQ ID NO: 2). The probe sequence was 5′-6-FAM-[…]-TAMRA-3′ (SEQ ID NO: 3).

[4] = oral RTV 15 minutes prior to Kyt-36; from U.S. patent application Ser. No. 14/875,416; cited from earlier work

Row | Structure (SMILES) | IC50 (trypsin) [nM] | IC50 (RgpB) [nM] | other results
1 | N=C(N)NCCC[C@@H](NC(=O)[C@H]1CCCNC1)C(=O)c1nc2ccccc2s1 [Compound 7, (3S)—N-[(1R)-1-(1,3-benzothiazole-2-carbonyl)-4-guanidino-butyl]piperidine-3-carboxamide] | > 1000 | – | –
2 | N=C(N)NCCC[C@H](NC(=O)C1CCCC1)C(=O)COc1c(F)c(F)cc(F)c1F [Compound 13, N-[(1S)-4-guanidino-1-[2-(2,3,5,6-tetrafluorophenoxy)acetyl]butyl]cyclopentanecarboxamide] | – | < 1 | Rescue of cells from P. gingivalis toxicity [1]: can rescue; also recorded: prevented the toxicity; Degradation of collagen type I by P. gingivalis culture supernatant [2]: prevent degradation of collagen; IC50 (Kgp): > 150 nM; IC50 (RgpA): < 0.5 nM; Plasma concentration over time ([3]; Pluronic F127 versus carboxymethylcellulose): increased concentration; AUC(0-t) ([3]; in 2% carboxymethylcellulose): 687 ng·h/mL; AUC(0-t) ([3]; in 25% Pluronic F127): 2120 ng·h/mL; P. gingivalis DNA in brain tissue by qPCR (P gingivalis W83): demonstrates efficacy
3 | CC[C@H](NC(C)=O)C(=O)NC(CCCNC(=N)N)C(=O)c1nc2ccccc2s1 (single isomer, unassigned) [Compound 12] | – | < 2 | –
4 | N=C(N)NCCCC(NC(=O)[C@H]1CC[C@@H](N)C1)C(=O)c1nc2ccccc2s1 (single isomer, unassigned) [Compound 9] | – | < 2 | –
5 | N=C(N)NCCC[C@H](NC(=O)[C@H]1CCNC1)C(=O)c1nc2ccccc2s1 [Compound 8, (3S)—N-[1-(1,3-benzothiazole-2-carbonyl)-4-guanidino-butyl]pyrrolidine-3-carboxamide] | > 1000 | – | –
6 | N=C(N)NCCC[C@H](NC(=O)c1ccccc1C(F)(F)F)C(=O)c1nc2ccccc2s1 [Compound 4, N-[(1S)-1-(1,3-benzothiazole-2-carbonyl)-4-guanidino-butyl]-2-(trifluoromethyl)benzamide] | > 350 | – | –
7 | CC[C@H](NC(C)=O)C(=O)NC(CCCNC(=N)N)C(=O)c1nc2ccccc2s1 (single isomer, unassigned) [Compound 11] | > 40 | – | –
8 | [N-]=[N+]=Nc1cccc(C(=O)N[C@@H](CCCNC(=N)N)C(=O)COc2c(F)c(F)cc(F)c2F)c1 [Compound 14, 3-azido-N-[(1S)-4-guanidino-1-[2-(2,3,5,6-tetrafluorophenoxy)acetyl]butyl]benzamide] | – | – | IC50 (Kgp): > 450 nM; IC50 (RgpA): < 0.5 nM
9 | CN(NC(=O)CC[C@H](NC(=O)OCc1ccccc1)C(=O)N[C@@H](CCCCN)C(=O)C(=O)NCc1ccccc1)c1ccccc1 [Kyt-36] | – | – | Half-life [4]: increases the half-life
10 | CCCC(=O)N[C@@H](CCCNC(=N)N)C(=O)c1nc2ccccc2s1 [Compound 2, N-[(1S)-1-(1,3-benzothiazole-2-carbonyl)-4-guanidino-butyl]butanamide] | > 1000 | < 2 | –
11 | N=C(N)NCCC[C@H](NC(=O)CCCN)C(=O)c1nc2ccccc2s1 [Compound 5, 4-amino-N-[(1S)-1-(1,3-benzothiazole-2-carbonyl)-4-guanidino-butyl]butanamide] | > 1000 | – | –
12 | N=C(N)NCCC[C@H](NC(=O)[C@H]1CCCNC1)C(=O)c1nc2ccccc2s1 [Compound 6, (3S)—N-[(1S)-1-(1,3-benzothiazole-2-carbonyl)-4-guanidino-butyl]piperidine-3-carboxamide] | > 1000 | – | –
13 | N=C(N)NCCC[C@H](NC(=O)c1ccccc1)C(=O)c1nc2ccccc2s1 [Compound 3, N-[(1S)-1-(1,3-benzothiazole-2-carbonyl)-4-guanidino-butyl]benzamide] | > 1000 | < 2 | –
14 | N=C(N)NCCC[C@H](NC(=O)C1CCCC1)C(=O)c1nc2ccccc2s1 [Compound 1, N-[(1S)-1-(1,3-benzothiazole-2-carbonyl)-4-guanidino-butyl]cyclopentanecarboxamide] | – | < 1 | –
15 | N=C(N)NCCCC(NC(=O)[C@H]1CC[C@@H](N)C1)C(=O)c1nc2ccccc2s1 (single isomer, unassigned) [Compound 10] | > 1000 | – | –
